Source: the supplement of paper PMC10307832

Compound: COCC[n+]1c2c(n(Cc3cnccn3)c1C)C(=O)c1ccccc1C2=O [YM155]
Experiment: relative viability (nuclei count vs DMSO), 5 days (fraction); higher = more cells survive
Conditions: 0.06325 µM
Method in brief: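 Lung cancer cell lines in 1536-well plates were kept overnight at 37 °C, then pinned with five library-drug doses (not always all listed) spaced by √10 on vehicle-anchored plates. After 5 days without medium change, cells were fixed, permeabilised and Hoechst-stained in one step, imaged at 4×, and nuclei were counted with MetaXpress. Viability is treated-well nuclei divided by vehicle-well nuclei, taken as the median over plates. Plates passed only with control CV below 25% and at least one doubling.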

| Cell Line | relative viability |
| --- | --- |
| HCC-827 | 1.11 |
| NCI-H2087 | 0.856 |
| SK-MES-1 | 0.692 |
| NCI-H1299 | 1 |
| NCI-H1651 | 0.998 |
| UMC-11 | 0.959 |
| NCI-H1355 | 1.08 |
| H3255 | 0.929 |
| NCI-H1792 | 0.957 |
| NCI-H647 | 0.538 |
| NCI-H1623 | 1.02 |
| Calu-6 | 0.186 |
| LCLC-97TM1 | 0.957 |
| NCI-H1703 | 0.444 |
| LXF-289 | 0.973 |
| LU99A | 0.938 |
| NCI-H2023 | 0.71 |
| NCI-H2228 | 1.11 |
| NCI-H1437 | 0.826 |
| NCI-H1395 | 0.985 |
| LCLC-103H | 1.02 |
| SW 900 | 0.729 |
| NCI-H2342 | 0.949 |
| NCI-H441 | 0.759 |
| ChaGo-K-1 | 0.918 |
| NCI-H522 | 0.997 |

Compound: CC(C)(C)c1cc(NC(=O)Nc2ccc(-c3cn4c(n3)sc3cc(OCCN5CCOCC5)ccc34)cc2)no1 [Quizartinib] + CS(=O)(=O)N1CCN(Cc2cc3nc(-c4cccc5[nH]ncc45)nc(N4CCOCC4)c3s2)CC1 [Pictilisib] (partner 1 µM)
Experiment: relative viability (nuclei count vs DMSO), 5 days (fraction); higher = more cells survive
Conditions: first compound 0.001 µM
Method in brief: (§1)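 Lung cancer cell lines were pin-tool dosed in 1536-well plates on the day after seeding, with either a lone drug or a fixed anchor-drug dose plus five library-drug doses (not always all listed) in √10 steps. Nuclei were counted on 4× images after 5 days. Relative viability is the ratio of treated-well to vehicle-well nuclei counts, with each value a median of duplicate plates.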

| Cell Line | relative viability |
| --- | --- |
| EKVX | 0.464 |
| EPLC-272H | 0.314 |
| NCI-H520 | 0.306 |
| NCI-H1563 | 0.719 |
| NCI-H650 | 0.992 |
| RERF-LC-KJ | 0.468 |
| HCC-827 | 0.93 |
| NCI-H2087 | 0.393 |
| SK-MES-1 | 0.244 |
| NCI-H1299 | 0.835 |
| NCI-H1651 | 0.42 |
| UMC-11 | 0.522 |
| NCI-H1355 | 0.352 |
| H3255 | 0.486 |
| NCI-H1792 | 0.317 |
| NCI-H647 | 0.466 |
| Calu-6 | 0.877 |
| NCI-H1703 | 0.3 |
| LXF-289 | 0.71 |
| LU99A | 0.312 |
| NCI-H2023 | 0.224 |
| NCI-H2228 | 0.364 |
| NCI-H1437 | 0.475 |
| NCI-H1395 | 0.478 |
| LCLC-103H | 0.535 |
| NCI-H441 | 0.38 |
| ChaGo-K-1 | 0.49 |

Same assay, conditions: first compound 0.003162 µM

| Cell Line | relative viability |
| --- | --- |
| EKVX | 0.478 |
| EPLC-272H | 0.391 |
| NCI-H520 | 0.273 |
| NCI-H1563 | 0.68 |
| NCI-H650 | 0.814 |
| RERF-LC-KJ | 0.586 |
| HCC-827 | 1.01 |
| NCI-H2087 | 0.867 |
| SK-MES-1 | 0.329 |
| NCI-H1299 | 0.735 |
| NCI-H1651 | 0.626 |
| UMC-11 | 0.779 |
| NCI-H1355 | 0.418 |
| H3255 | 0.404 |
| NCI-H1792 | 0.247 |
| NCI-H647 | 0.434 |
| Calu-6 | 0.867 |
| LCLC-97TM1 | 0.144 |
| NCI-H1703 | 0.183 |
| LXF-289 | 0.748 |
| LU99A | 0.317 |
| NCI-H2023 | 0.271 |
| NCI-H2228 | 0.312 |
| NCI-H1437 | 0.37 |
| NCI-H1395 | 0.65 |
| LCLC-103H | 0.733 |
| NCI-H441 | 0.508 |
| ChaGo-K-1 | 0.905 |

Same assay, conditions: first compound 0.01 µM

| Cell Line | relative viability |
| --- | --- |
| EKVX | 0.471 |
| EPLC-272H | 0.405 |
| NCI-H520 | 0.307 |
| NCI-H1563 | 0.649 |
| NCI-H650 | 0.923 |
| RERF-LC-KJ | 0.735 |
| HCC-827 | 1.14 |
| NCI-H2087 | 0.916 |
| SK-MES-1 | 0.391 |
| NCI-H1299 | 0.797 |
| NCI-H1651 | 0.588 |
| UMC-11 | 0.836 |
| NCI-H1355 | 0.41 |
| H3255 | 0.507 |
| NCI-H1792 | 0.281 |
| NCI-H647 | 0.536 |
| Calu-6 | 0.988 |
| LCLC-97TM1 | 0.223 |
| NCI-H1703 | 0.216 |
| LXF-289 | 0.801 |
| LU99A | 0.327 |
| NCI-H2023 | 0.216 |
| NCI-H2228 | 0.456 |
| NCI-H1437 | 0.425 |
| NCI-H1395 | 0.661 |
| LCLC-103H | 0.591 |
| NCI-H441 | 0.508 |
| ChaGo-K-1 | 0.669 |

Same assay, conditions: first compound 0.03162 µM

| Cell Line | relative viability |
| --- | --- |
| EKVX | 0.407 |
| EPLC-272H | 0.323 |
| NCI-H520 | 0.287 |
| NCI-H650 | 0.923 |
| RERF-LC-KJ | 0.538 |
| HCC-827 | 0.983 |
| NCI-H2087 | 0.665 |
| SK-MES-1 | 0.363 |
| NCI-H1299 | 0.726 |
| NCI-H1651 | 0.423 |
| UMC-11 | 0.742 |
| NCI-H1355 | 0.426 |
| H3255 | 0.471 |
| NCI-H1792 | 0.235 |
| Calu-6 | 0.607 |
| LCLC-97TM1 | 0.148 |
| NCI-H1703 | 0.154 |
| LXF-289 | 0.763 |
| LU99A | 0.309 |
| NCI-H2023 | 0.121 |
| NCI-H2228 | 0.386 |
| NCI-H1437 | 0.327 |
| NCI-H1395 | 0.695 |
| LCLC-103H | 0.547 |
| NCI-H441 | 0.379 |

Same assay, conditions: first compound 0.1 µM

| Cell Line | relative viability |
| --- | --- |
| EKVX | 0.476 |
| EPLC-272H | 0.398 |
| NCI-H520 | 0.245 |
| NCI-H1563 | 0.626 |
| NCI-H650 | 1.12 |
| RERF-LC-KJ | 0.515 |
| HCC-827 | 0.908 |
| NCI-H2087 | 0.81 |
| SK-MES-1 | 0.365 |
| NCI-H1299 | 0.881 |
| NCI-H1651 | 0.625 |
| UMC-11 | 0.885 |
| NCI-H1355 | 0.5 |
| H3255 | 0.47 |
| NCI-H1792 | 0.385 |
| NCI-H647 | 0.474 |
| Calu-6 | 0.858 |
| LCLC-97TM1 | 0.218 |
| NCI-H1703 | 0.24 |
| LXF-289 | 0.777 |
| LU99A | 0.291 |
| NCI-H2023 | 0.245 |
| NCI-H2228 | 0.464 |
| NCI-H1437 | 0.314 |
| NCI-H1395 | 0.667 |
| LCLC-103H | 0.546 |
| NCI-H441 | 0.606 |
| ChaGo-K-1 | 1.01 |

Compound: COCC[n+]1c2c(n(Cc3cnccn3)c1C)C(=O)c1ccccc1C2=O [YM155] + CS(=O)(=O)CCNCc1ccc(-c2ccc3ncnc(Nc4ccc(OCc5cccc(F)c5)c(Cl)c4)c3c2)o1 [Lapatinib] (partner 2 µM)
Experiment: as above
Conditions: first compound 0.002 µM
Method in brief: as §1

| Cell Line | relative viability |
| --- | --- |
| EKVX | 0.214 |
| EPLC-272H | 1.05 |
| NCI-H520 | 0.801 |
| NCI-H1563 | 0.924 |
| NCI-H650 | 0.84 |
| RERF-LC-KJ | 0.755 |
| HCC-827 | 0.169 |
| NCI-H2087 | 1.26 |
| SK-MES-1 | 0.468 |
| NCI-H1299 | 0.949 |
| NCI-H1651 | 0.869 |
| UMC-11 | 0.846 |
| NCI-H1355 | 0.934 |
| H3255 | 0.24 |
| NCI-H1792 | 0.95 |
| NCI-H647 | 1.13 |
| Calu-6 | 1.04 |
| LCLC-97TM1 | 1.04 |
| NCI-H1703 | 1.11 |
| LXF-289 | 0.891 |
| LU99A | 0.965 |
| NCI-H2023 | 0.884 |
| NCI-H2228 | 0.856 |
| NCI-H1437 | 0.72 |
| NCI-H1395 | 1.06 |

Same assay, conditions: first compound 0.006325 µM

| Cell Line | relative viability |
| --- | --- |
| EKVX | 0.286 |
| EPLC-272H | 0.854 |
| NCI-H520 | 0.733 |
| NCI-H1563 | 0.994 |
| NCI-H650 | 0.929 |
| RERF-LC-KJ | 0.853 |
| HCC-827 | 0.198 |
| NCI-H2087 | 1.01 |
| SK-MES-1 | 0.476 |
| NCI-H1299 | 0.962 |
| NCI-H1651 | 0.861 |
| UMC-11 | 0.964 |
| NCI-H1355 | 1.04 |
| H3255 | 0.241 |
| NCI-H1792 | 0.92 |
| NCI-H647 | 1.08 |
| Calu-6 | 0.992 |
| LCLC-97TM1 | 1.03 |
| NCI-H1703 | 0.982 |
| LXF-289 | 0.892 |
| LU99A | 0.884 |
| NCI-H2023 | 0.827 |
| NCI-H2228 | 1.16 |
| NCI-H1437 | 0.784 |
| NCI-H1395 | 1.05 |

Same assay, conditions: first compound 0.02 µM

| Cell Line | relative viability |
| --- | --- |
| EKVX | 0.221 |
| EPLC-272H | 0.941 |
| NCI-H520 | 1.16 |
| NCI-H1563 | 0.986 |
| NCI-H650 | 0.785 |
| RERF-LC-KJ | 0.88 |
| HCC-827 | 0.177 |
| NCI-H2087 | 1.12 |
| SK-MES-1 | 0.442 |
| NCI-H1299 | 0.908 |
| NCI-H1651 | 0.726 |
| UMC-11 | 0.994 |
| NCI-H1355 | 0.996 |
| H3255 | 0.265 |
| NCI-H1792 | 0.943 |
| NCI-H647 | 0.799 |
| Calu-6 | 0.271 |
| LCLC-97TM1 | 1 |
| NCI-H1703 | 0.452 |
| LXF-289 | 0.905 |
| LU99A | 0.809 |
| NCI-H2023 | 0.867 |
| NCI-H2228 | 0.988 |
| NCI-H1437 | 0.767 |
| NCI-H1395 | 1.25 |

Same assay, conditions: first compound 0.06325 µM

| Cell Line | relative viability |
| --- | --- |
| EKVX | 0.182 |
| EPLC-272H | 0.949 |
| NCI-H520 | 1.02 |
| NCI-H1563 | 1.05 |
| NCI-H650 | 0.707 |
| RERF-LC-KJ | 0.821 |
| HCC-827 | 0.191 |
| NCI-H2087 | 0.708 |
| SK-MES-1 | 0.473 |
| NCI-H1299 | 0.176 |
| NCI-H1651 | 0.601 |
| UMC-11 | 0.93 |
| NCI-H1355 | 1.02 |
| H3255 | 0.263 |
| NCI-H1792 | 0.895 |
| NCI-H647 | 0.405 |
| Calu-6 | 0.143 |
| LCLC-97TM1 | 0.551 |
| NCI-H1703 | 0.179 |
| LXF-289 | 0.713 |
| LU99A | 0.589 |
| NCI-H2023 | 0.49 |
| NCI-H2228 | 0.998 |
| NCI-H1437 | 0.708 |
| NCI-H1395 | 1.13 |
